Legend:
[1] = biological target: T1, Human immunodeficiency virus type 1 reverse transcriptase (Human immunodeficiency virus 1, UniProt Q72547); experiment: Inhibition of wild type HIV-1 reverse transcriptase
[2] = biological target: T1, Human immunodeficiency virus type 1 reverse transcriptase; experiment: Inhibition of HIV-1 NL4-3 reverse transcriptase
[3] = system: Human immunodeficiency virus 2; experiment: Antiviral activity against HIV-2 ROD infected in human MT4 cells assessed as virus-induced cytopathic effect incubated for 5 days by MTT assay; format: functional, organism-based; settings: Human immunodeficiency virus 2, ROD, MT4, 120 h
[4] = system: Human immunodeficiency virus 1; experiment: Antiviral activity against HIV-1 NL4-3 infected in human MT2 cells assessed as reduction in viral replication; format: functional, organism-based; settings: Human immunodeficiency virus 1, NL4-3, MT2
[5] = Half life in human at 40 mg by LC-MS/MS analysis; format: ADME; settings: in vivo
[6] = Cmax in human at 20 mg, po; format: ADME; settings: in vivo
[7] = Cmax in human at 40 mg, po; format: ADME; settings: in vivo
[8] = Tmax in human at 40 mg, po; format: ADME; settings: in vivo
[9] = Half life in human at 20 mg by LC-MS/MS analysis; format: ADME; settings: in vivo
[10] = Tmax in human at 20 mg, po; format: ADME; settings: in vivo
[11] = biological target: T2, Human immunodeficiency virus type 1 integrase (Human immunodeficiency virus 1, UniProt Q7ZJM1); experiment: Inhibition of HIV-1 BAL integrase strand transfer activity
[12] = biological target: T2, Human immunodeficiency virus type 1 integrase; experiment: Inhibition of HIV-1 NL4-3 integrase
[13] = biological target: T1, Human immunodeficiency virus type 1 reverse transcriptase; experiment: Inhibition of HIV-1 reverse transcriptase
[14] = biological target: T2, Human immunodeficiency virus type 1 integrase; experiment: Inhibition of HIV-1 integrase strand transfer activity
[15] = Inhibition of Influenza A virus RdRp
[16] = biological target: Structural capsid protein (Human immunodeficiency virus 1, UniProt Q76129); experiment: Inhibition of HIV-1 NL4-3 monomeric capsid protein
[17] = biological target: Human immunodeficiency virus type 1 protease (Human immunodeficiency virus 1, UniProt Q72874); experiment: Inhibition of HIV-1 protease by fluorescence resonance energy transfer analysis
[18] = system: Human immunodeficiency virus 1; experiment: Antiviral activity against HIV1 subtype A clinical isolate UG275; format: functional, organism-based; settings: Human immunodeficiency virus 1, UG275
[19] = system: Human immunodeficiency virus 1; experiment: Antiviral activity against HIV-1; format: functional, organism-based

T2 sequence (Q7ZJM1 whole entry): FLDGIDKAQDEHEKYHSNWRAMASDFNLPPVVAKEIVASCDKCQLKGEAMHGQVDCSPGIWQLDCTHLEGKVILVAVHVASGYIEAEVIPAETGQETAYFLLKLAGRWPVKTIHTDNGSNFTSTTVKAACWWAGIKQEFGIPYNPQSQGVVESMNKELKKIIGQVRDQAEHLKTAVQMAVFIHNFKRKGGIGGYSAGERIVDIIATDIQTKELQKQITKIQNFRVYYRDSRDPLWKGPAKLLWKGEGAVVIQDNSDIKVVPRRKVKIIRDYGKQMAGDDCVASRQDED
Chain of Structural capsid protein (Q76129 whole entry): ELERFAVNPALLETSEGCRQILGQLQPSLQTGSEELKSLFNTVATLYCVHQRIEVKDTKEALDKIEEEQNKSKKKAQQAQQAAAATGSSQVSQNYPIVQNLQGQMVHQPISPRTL

Cc1cc(/C=C/C#N)cc(C)c1Nc1ccnc(Nc2ccc(C#N)cc2)n1 [RILPIVIRINE]
IC50 [1]: 0.24 nM | IC50 [2]: < 2 nM

C#C[C@]1(CO)C=C[C@@H](n2cc(C)c(=O)[nH]c2=O)O1
EC50 [3]: 30 nM | EC50 [4]: 450 nM

CCC(=O)NS(=O)(=O)c1ccc(NC(=O)Cc2ccc(Br)c(Oc3cc(Cl)cc(C#N)c3)c2F)c(Cl)c1 [ELSULFAVIRINE]
half-life [5]: 2.6 h | Cmax [6]: 7.5 ng/mL | Cmax [7]: 10.8 ng/mL | Tmax [8]: 1.9 h | half-life [9]: 1.7 h | Tmax [10]: 1.1 h

C[C@H]1CO[C@@H]2Cn3cc(C(=O)NCc4ccc(F)cc4F)c(=O)c(O)c3C(=O)N12 [CABOTEGRAVIR]
IC50 [11]: 0.22 nM | IC50 [12]: 0.34 nM

C=C(C)[C@@H]1CC[C@]2(NCCN3CCS(=O)(=O)CC3)CC[C@]3(C)[C@H](CC[C@@H]4[C@@]5(C)CC=C(c6ccc(C(=O)O)cc6)C(C)(C)[C@@H]5CC[C@]43C)[C@@H]12 [BMS-955176]
IC50 [13]: > 50000 nM | IC50 [14]: > 15000 nM | IC50 [15]: > 100000 nM | IC50 [16]: > 50000 nM | IC50 [17]: > 10000 nM

C=C(C)[C@@H]1CC[C@]2(NCCN3CCS(=O)(=O)CC3)CC[C@]3(C)[C@H](CC[C@@H]4[C@@]5(C)CC=C(C6=CC[C@@](CF)(C(=O)O)CC6)C(C)(C)[C@@H]5CC[C@]43C)[C@@H]12 [FIPRAVIRIMAT]
EC50 [18]: 3.5 nM | EC50 [19]: 9 nM
